Reference: patent US4578489A (priority 1982, dated 1986)
Read-outs that look alike come from different tables or passages of the source.

Columns and labels:
Assay type in all cases: cell-based
[1] = system: Chaetomium globosum; test: Minimum inhibitory concentration against fungi, agar incorporation test, strain S; conditions: malt extract/agar
Method: (§1) The invention is carried out using the known agar incorporation test in the following fungi:
(§2) in a malt extract/agar (Merck). Inhibition is effected by adding sufficient of each of the various compounds to give final concentrations in the agar of 2, 5, 10, 50 and 100 mg/liter. The concentrations (mg/liters) required to inhibit the growth of the fungi (starting from traces of fungi added dropwise) are illustrated in Table 3.

[2] = system: Aspergillus niger; test: Minimum inhibitory concentration against fungi, agar incorporation test, strain K; conditions: malt extract/agar
Method: as §1, §2

[3] = system: Aspergillus phoenicis; test: Minimum inhibitory concentration against fungi, agar incorporation test, strain L; conditions: malt extract/agar
Method: as §1
(L) Aspergillus phoenicis
as §2

[4] = system: Cladosporium cladosporioides; test: Minimum inhibitory concentration against fungi, agar incorporation test, strain O; conditions: malt extract/agar
Method: as §1
(O) Cladosporium cladosporioides
as §2

[5] = system: Endomyces geotrichum; test: Minimum inhibitory concentration against fungi, agar incorporation test, strain Q; conditions: malt extract/agar
Method: as §1, §2

[6] = system: Alternaria alternata; test: Minimum inhibitory concentration against fungi, agar incorporation test, strain N; conditions: malt extract/agar
Method: as §1, §2

[7] = system: mixed culture of bacteria; set-up: key: +: growth, no destruction; (+): growth less than that of control (>10 colonies), slight destruction; (-): slight growth (1-10 colonies); -: no growth, destruction
[8] = system: Candida albicans; test: Minimum inhibitory concentration against fungi, agar incorporation test, strain P; conditions: malt extract/agar
Method: as §1, §2

[9] = system: Aureobasidium pullulans; test: Minimum inhibitory concentration against fungi, agar incorporation test, strain R; conditions: malt extract/agar
Method: as §1
(R) Aureobasidium pullulans
as §2

[10] = system: Penicillium funiculosum; test: Minimum inhibitory concentration against fungi, agar incorporation test, strain M; conditions: malt extract/agar
Method: as §1
(M) Penicillium funiculosum
as §2

[11] = system: Chlorella vulgaris; test: Action against algae: Chlorella vulgaris; set-up: key: --: no growth on the agar, 3 ppm have destroyed the algae in 6 hours; conditions: 3 mg/liter; for Growth on the agar (algae-destroying action): 6 hours exposure, 14 days incubation; for Growth in the medium (growth inhibition): 14 days
Method: Cultures of Chlorella vulgaris which had been grown for 14 days in algae nutrient media are diluted in the ratio 1/200 in the algae nutrient medium. Each of the compounds listed in Table 1 is then added in such an amount as to give a final concentration of 3 mg/liter. After incubating for 6 hours, 10 μl of each culture are withdrawn and added dropwise to algae/agar in order to determine the destructive action. After the cultures have incubated for 14 days under illumination (14 hours of light and 10 hours of darkness, alternately), the growth in the algae medium (determination of growth inhibition) and on the algae/agar (determination of algae-destroying action) is assessed visually.

[12] = system: Proteus vulgaris; test: Minimum inhibitory concentration against bacteria, strain A; conditions: 24 hours at 30° C.; tested at 100 and 300 mg/liter
Method: (§3) Overnight cultures, grown in Caso peptone bouillon (Merck) of the various strains of bacteria: (A) Proteus vulgaris, (B) Pseudomonas aeruginosa, (C) Enterobacter aerogenes, (D) Serratia marcencens, (E) Alcaligenes denitrificans and (F) Bacillus subtilis are each diluted in a ratio of 1/1000 in saline solution. Sufficient of the suspensions is put into Caso peptone bouillon to dilute the bacteria again in the ratio of 1/1000. Each of the compounds listed in Table 1 is then added in amounts of 100 and 300 mg/liter. After being incubated for 24 hours at 30° C. in a shaking waterbath, the turbidity of the samples is evaluated.

[13] = system: Pseudomonas aeruginosa; test: Minimum inhibitory concentration against bacteria, strain B; conditions: 24 hours at 30° C.; tested at 100 and 300 mg/liter
Method: as §3

[14] = system: Serratia marcencens; test: Minimum inhibitory concentration against bacteria, strain D; conditions: 24 hours at 30° C.; tested at 100 and 300 mg/liter
Method: as §3

[15] = system: Bacillus subtilis; test: Minimum inhibitory concentration against bacteria, strain F; conditions: 24 hours at 30° C.; tested at 100 and 300 mg/liter
Method: as §3

[16] = system: Enterobacter aerogenes; test: Minimum inhibitory concentration against bacteria, strain C; conditions: 24 hours at 30° C.; tested at 100 and 300 mg/liter
Method: as §3

[17] = system: Alcaligenes denitrificans; test: Minimum inhibitory concentration against bacteria, strain E; conditions: 24 hours at 30° C.; tested at 100 and 300 mg/liter
Method: as §3

[18] = 5 mg/l, culture diluted 1/1000 in Tyrode
[19] = 5 mg/l, culture diluted 1/10000 in Tyrode
[20] = 10 mg/l, culture diluted 1/1000 in Tyrode
[21] = 10 mg/l, culture diluted 1/10000 in Tyrode
[22] = 30 mg/l, culture diluted 1/1000 in Tyrode
[23] = 30 mg/l, culture diluted 1/10000 in Tyrode
[24] = 60 mg/l, culture diluted 1/1000 in Tyrode
[25] = 60 mg/l, culture diluted 1/10000 in Tyrode
[26] = 100 mg/l, culture diluted 1/1000 in Tyrode
[27] = 100 mg/l, culture diluted 1/10000 in Tyrode

Compound	MIC against fungi, strain S [1] [µg/mL]	MIC against fungi, strain K [2] [µg/mL]	MIC against fungi, strain L [3] [µg/mL]	MIC against fungi, strain O [4] [µg/mL]	MIC against fungi, strain Q [5] [µg/mL]	MIC against fungi, strain N [6] [µg/mL]	Growth (destruction of a mixed culture of bacteria) [7, 18]	Growth (destruction of a mixed culture of bacteria) [7, 19]	Growth (destruction of a mixed culture of bacteria) [7, 20]	MIC against fungi, strain P [8] [µg/mL]	MIC against fungi, strain R [9] [µg/mL]	MIC against fungi, strain M [10] [µg/mL]	Growth on the agar (algae-destroying action) [11]	Growth in the medium (growth inhibition) [11]	MIC against bacteria, strain A [12] [µg/mL]	MIC against bacteria, strain B [13] [µg/mL]	MIC against bacteria, strain D [14] [µg/mL]	MIC against bacteria, strain F [15] [µg/mL]	MIC against bacteria, strain C [16] [µg/mL]	MIC against bacteria, strain E [17] [µg/mL]	other results
CCCCCCCCCCCCCCCCCC[N+](C)(C)C.CCC[CH2][Sn-]([Cl])([Cl])([CH2]CCC)[CH2]CCC [Example 18, (CH3)3 NC18 H37 / Tributyldichloro]	2	2	2	2	10	2	+	(+) (growth less than that of control (>10 colonies), slight destruction)	+	5	2	5	--	--							Growth (destruction of a mixed culture of bacteria) [7, 21]: (-) (slight growth (1-10 colonies)); Growth (destruction of a mixed culture of bacteria) [7, 22]: (+) (growth less than that of control (>10 colonies), slight destruction); Growth (destruction of a mixed culture of bacteria) [7, 23]: -; Growth (destruction of a mixed culture of bacteria) [7, 24]: (+) (growth less than that of control (>10 colonies), slight destruction); Growth (destruction of a mixed culture of bacteria) [7, 25]: -; Growth (destruction of a mixed culture of bacteria) [7, 26]: (-) (slight growth (1-10 colonies)); Growth (destruction of a mixed culture of bacteria) [7, 27]: -
(CH3)2 N(OH)C16 H37 / Tributyldichloro [Example 15]	2	2	2	2	10	2				5	2	5	--	--	100	100	> 300	100	> 300	300	
CCCCCCCCCCCC[N+](C)(C)C.CCC[CH2][Sn-]([Cl])([Cl])([CH2]CCC)[CH2]CCC [Example 16, (CH3)3 NC12 H25 / Tributyldichloro]	2	2	2	2	50	2				5	2	5	--	--	100	100	100	100	100	100	
CCCCCCCCCCCCCCCC[N+](C)(C)C.CCC[CH2][Sn-]([Cl])([Cl])([CH2]CCC)[CH2]CCC [Example 17, (CH3)3 NC16 H33 / Tributyldichloro]	2	2	2	2	10	2	+	(+) (growth less than that of control (>10 colonies), slight destruction)	+	5	2	5	--	--							Growth (destruction of a mixed culture of bacteria) [7, 21]: (+) (growth less than that of control (>10 colonies), slight destruction); Growth (destruction of a mixed culture of bacteria) [7, 22]: (+) (growth less than that of control (>10 colonies), slight destruction); Growth (destruction of a mixed culture of bacteria) [7, 23]: -; Growth (destruction of a mixed culture of bacteria) [7, 24]: -; Growth (destruction of a mixed culture of bacteria) [7, 25]: -; Growth (destruction of a mixed culture of bacteria) [7, 26]: -; Growth (destruction of a mixed culture of bacteria) [7, 27]: -
CCCCCCCCCCCCC(=O)NCCC[N+](C)(C)CC(N)=O.CCC[CH2][Sn-]([Cl])([Cl])([CH2]CCC)[CH2]CCC [Example 30, (C12 H25 CO)NH(CH2) 3 N(CH3)2 (CH2 CONH2) / Tributyldichloro]	≤ 5	≤ 5	≤ 5	≤ 5	10	≤ 5				≤ 5	≤ 5	10	--	--	100	100	100	100	100	100	
